Measurements reported in patent publication US20230398153A1, “A METHOD FOR EFFICIENT MICROGLIA REPLACEMENT” (The Board of Trustees of the Leland Stanford Junior …, priority 2020, published 2023).

Test system: PB leukocytes and brain myeloid cells
Experiment: Conventional HSCT after busulfan conditioning: GFP chimerism in peripheral blood and brain
Format: in vivo, mouse
Settings: busulfan 5 days, IV GFP bone marrow
Procedure: FIG. 1. Microglia replacement after bone marrow transplantation is a slow, inefficient and variable process. (A) Schematic overview of bone marrow transplantation (HSCT). Recipient mice were received intraperitoneal (IP) injection of busulfan for 5 days at 25 mg/kg/day (i.e. 125 mg/kg total dose) and then transplanted with GFP-expressing bone marrow cells via intravenous (IV) injection. Donor chimerism in peripheral blood (PB) and brain myeloid cells was analyzed at the indicated time points. (B and C) Donor chimerism in PB leukocytes (CD45+ cells) and brain myeloid cells (CD45+CD11b+ cells) was analyzed by flow cytometry at the indicated time point. […] GFP chimerism in PB leukocytes (B) (Mean±SEM, n=5-20/time point, ***p<0.001, ns: not significant, ANOVA). […] (F) Quantification of transplanted GFP+bone marrow cells in coronal brain sections. […] Horizontal bars represent mean values (n=3/group, 3 brain slices/animal were quantified. **p<0.01, ***p<0.001, Student's t-test). […] (H) Microglia chimerism was analyzed by flow cytometry 14 days post IV injection. […]
The reported efficiencies of microglia replacement following HSCT in mice vary greatly in the literature. […] Brain chimerism was determined by sacrificing the mice, dissociating one hemisphere for flow cytometry analysis and fixing the other hemisphere for immunofluorescence analysis (FIG. 8A-C). […]

## CS(=O)(=O)OCCCCOS(C)(=O)=O [busulfan]
2 weeks after transplantation, average
  GFP+ cells in peripheral blood: about 40%
Conventional HSCT without PLX5622
  degree of GFP chimerism among brain myeloid cells, range between mice: 7.09-73.4%
